This passage reports EC50 results from ChEMBL document CHEMBL5316328, “Discovery of AXL Degraders with Improved Potencies in Triple-Negative Breast Cancer (TNBC) Cells” (J Med Chem, 2023).

A word on the EC50: it is the concentration that produces a half-maximal response.

Molecules are shown by their SMILES.

Chain of von Hippel-Lindau disease tumor suppressor/Tyrosine-protein kinase receptor UFO (P30530 whole entry): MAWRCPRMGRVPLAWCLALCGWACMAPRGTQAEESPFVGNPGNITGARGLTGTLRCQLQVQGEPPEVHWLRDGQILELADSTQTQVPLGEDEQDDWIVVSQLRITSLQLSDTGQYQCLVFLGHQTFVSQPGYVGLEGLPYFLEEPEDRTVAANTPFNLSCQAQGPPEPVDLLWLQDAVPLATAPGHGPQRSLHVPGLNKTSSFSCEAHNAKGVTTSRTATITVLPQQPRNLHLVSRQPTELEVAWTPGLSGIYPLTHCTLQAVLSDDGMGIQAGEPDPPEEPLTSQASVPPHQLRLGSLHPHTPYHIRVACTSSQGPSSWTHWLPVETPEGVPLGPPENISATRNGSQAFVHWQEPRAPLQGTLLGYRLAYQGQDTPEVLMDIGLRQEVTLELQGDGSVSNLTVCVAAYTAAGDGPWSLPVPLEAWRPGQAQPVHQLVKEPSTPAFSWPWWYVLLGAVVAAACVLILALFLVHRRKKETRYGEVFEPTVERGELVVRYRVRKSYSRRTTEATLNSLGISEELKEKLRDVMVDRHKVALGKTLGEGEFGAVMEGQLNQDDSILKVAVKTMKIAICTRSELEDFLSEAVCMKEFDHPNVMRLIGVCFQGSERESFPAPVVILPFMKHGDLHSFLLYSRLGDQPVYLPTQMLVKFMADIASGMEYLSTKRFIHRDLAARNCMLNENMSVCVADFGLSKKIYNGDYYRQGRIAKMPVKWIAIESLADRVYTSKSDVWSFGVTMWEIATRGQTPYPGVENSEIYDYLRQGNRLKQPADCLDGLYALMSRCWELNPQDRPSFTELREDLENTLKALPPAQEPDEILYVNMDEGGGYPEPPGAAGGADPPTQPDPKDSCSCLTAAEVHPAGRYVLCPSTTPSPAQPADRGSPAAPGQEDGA
Chain of von Hippel-Lindau disease tumor suppressor/Tyrosine-protein kinase receptor UFO (P40337 whole entry): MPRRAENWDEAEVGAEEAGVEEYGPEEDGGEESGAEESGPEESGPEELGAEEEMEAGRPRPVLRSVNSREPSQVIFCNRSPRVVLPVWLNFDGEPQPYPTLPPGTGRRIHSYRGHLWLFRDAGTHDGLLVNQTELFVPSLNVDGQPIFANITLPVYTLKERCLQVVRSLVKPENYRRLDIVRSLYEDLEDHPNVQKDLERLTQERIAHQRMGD
Chain of Protein cereblon/Tyrosine-protein kinase receptor UFO (P30530 whole entry): as the sequence (P30530 whole entry) above
Chain of Protein cereblon/Tyrosine-protein kinase receptor UFO (Q96SW2 whole entry): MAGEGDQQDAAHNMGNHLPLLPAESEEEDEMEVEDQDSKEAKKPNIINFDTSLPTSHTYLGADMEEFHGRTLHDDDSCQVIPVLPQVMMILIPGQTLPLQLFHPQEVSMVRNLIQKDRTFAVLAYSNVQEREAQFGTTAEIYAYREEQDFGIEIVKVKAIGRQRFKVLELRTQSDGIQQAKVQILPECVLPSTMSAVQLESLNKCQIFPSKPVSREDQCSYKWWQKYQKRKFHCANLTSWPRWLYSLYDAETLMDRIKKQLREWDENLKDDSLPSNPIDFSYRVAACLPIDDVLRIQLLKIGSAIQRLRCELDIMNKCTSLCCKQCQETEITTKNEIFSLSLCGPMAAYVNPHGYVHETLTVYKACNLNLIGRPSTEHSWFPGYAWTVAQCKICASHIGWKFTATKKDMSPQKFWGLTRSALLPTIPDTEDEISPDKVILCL

The first assay addresses von Hippel-Lindau disease tumor suppressor/Tyrosine-protein kinase receptor UFO (Homo sapiens, UniProt P30530+P40337). Description: PROTAC activity at VHL/AXL in human MDA-MB-231 cells assessed as induction of AXL degradation incubated for 24 hrs by immunoblot analysis. Format: cell-based. For orientation: A western blot detects proteins with antibodies after separation by electrophoresis.
With `CCc1ccc2c(c1)c(=O)c(C(=O)Nc1ccc(Oc3ncnc4cc(OCCCCCC(=O)N[C@H](C(=O)N5C[C@H](O)C[C@H]5C(=O)NCc5ccc(-c6scnc6C)cc5)C(C)(C)C)c(OC)cc34)c(F)c1)c(C)n2C`, the EC50 is above 10 µM.

Take `CCc1ccc2c(c1)c(=O)c(C(=O)Nc1ccc(Oc3ncnc4cc(OCCCCCCCCCC(=O)N[C@H](C(=O)N5C[C@H](O)C[C@H]5C(=O)NCc5ccc(-c6scnc6C)cc5)C(C)(C)C)c(OC)cc34)c(F)c1)c(C)n2C`: the EC50 was above 10 µM.

Turning to `CCc1ccc2c(c1)c(=O)c(C(=O)Nc1ccc(Oc3ncnc4cc(OCCCCCCCC(=O)N[C@H](C(=O)N5C[C@H](O)C[C@H]5C(=O)NCc5ccc(-c6scnc6C)cc5)C(C)(C)C)c(OC)cc34)c(F)c1)c(C)n2C`, the EC50 was above 10 µM.

The next assay concerns the target Protein cereblon/Tyrosine-protein kinase receptor UFO (Homo sapiens, UniProt P30530+Q96SW2). Description: PROTAC activity at CRBN/AXL in human MDA-MB-231 cells assessed as induction of AXL degradation incubated for 24 hrs by immunoblot analysis. Format: cell-based.
`CCc1ccc2c(c1)c(=O)c(C(=O)Nc1ccc(Oc3ncnc4cc(OCCCCCCCCCC(=O)Nc5ccc6c(c5)C(=O)N(C5CCC(=O)NC5=O)C6=O)c(OC)cc34)c(F)c1)c(C)n2C` (stereo not drawn): the EC50 is above 10 µM.

`CCc1ccc2c(c1)c(=O)c(C(=O)Nc1ccc(Oc3ncnc4cc(OCCCCCC(=O)Nc5cccc6c5CN(C5CCC(=O)NC5=O)C6=O)c(OC)cc34)c(F)c1)c(C)n2C` (stereo not drawn): the EC50 was above 10 µM.

Regarding `CCc1ccc2c(c1)c(=O)c(C(=O)Nc1ccc(Oc3ncnc4cc(OCCCCCC(=O)Nc5cccc6c5C(=O)N(C5CCC(=O)NC5=O)C6=O)c(OC)cc34)c(F)c1)c(C)n2C` (stereo not drawn), the EC50 is above 10 µM.

As to `CCc1ccc2c(c1)c(=O)c(C(=O)Nc1ccc(Oc3ncnc4cc(OCCCCCC(=O)Nc5cccc6c5C(=O)N(C5CCC(=O)NC5=O)C6)c(OC)cc34)c(F)c1)c(C)n2C` (stereo not drawn), the EC50 was above 10 µM.

As to `CCc1ccc2c(c1)c(=O)c(C(=O)Nc1ccc(Oc3ncnc4cc(OCCCCCCCCCCCC(=O)Nc5ccc6c(c5)C(=O)N(C5CCC(=O)NC5=O)C6=O)c(OC)cc34)c(F)c1)c(C)n2C` (stereo not drawn), the 50% effective concentration (EC50) is above 10 µM.

Take `CCc1ccc2c(c1)c(=O)c(C(=O)Nc1ccc(Oc3ncnc4cc(OCC(=O)Nc5ccc6c(c5)C(=O)N(C5CCC(=O)NC5=O)C6=O)c(OC)cc34)c(F)c1)c(C)n2C` (stereo not drawn): the EC50 is above 10 µM.

As for `CCc1ccc2c(c1)c(=O)c(C(=O)Nc1ccc(Oc3ncnc4cc(OCCCCCCCC(=O)Nc5cccc6c5C(=O)N(C5CCC(=O)NC5=O)C6=O)c(OC)cc34)c(F)c1)c(C)n2C` (stereo not drawn), the half-maximal effective concentration (EC50) is above 10 µM.

Regarding `CCc1ccc2c(c1)c(=O)c(C(=O)Nc1ccc(Oc3ncnc4cc(OCCCCCC(=O)Nc5ccc6c(c5)C(=O)N(C5CCC(=O)NC5=O)C6)c(OC)cc34)c(F)c1)c(C)n2C` (stereo not drawn), the concentration giving a half-maximal response (EC50) is above 10 µM.

Turning to `CCc1ccc2c(c1)c(=O)c(C(=O)Nc1ccc(Oc3ncnc4cc(OCCCCCCCC(=O)Nc5ccc6c(c5)C(=O)N(C5CCC(=O)NC5=O)C6=O)c(OC)cc34)c(F)c1)c(C)n2C` (stereo not drawn), the EC50 was determined as 0.108 µM.

Take `CCc1ccc2c(c1)c(=O)c(C(=O)Nc1ccc(Oc3ncnc4cc(OCC(=O)Nc5cccc6c5C(=O)N(C5CCC(=O)NC5=O)C6=O)c(OC)cc34)c(F)c1)c(C)n2C` (stereo not drawn): the EC50 is above 10 µM.

Regarding `CCc1ccc2c(c1)c(=O)c(C(=O)Nc1ccc(Oc3ncnc4cc(OCCCCCC(=O)Nc5ccc6c(c5)C(=O)N(C5CCC(=O)NC5=O)C6=O)c(OC)cc34)c(F)c1)c(C)n2C` (stereo not drawn), the EC50 was found to be 0.04 µM.

Take `CCc1ccc2c(c1)c(=O)c(C(=O)Nc1ccc(Oc3ncnc4cc(OCCCCC(=O)Nc5cccc6c5C(=O)N(C5CCC(=O)NC5=O)C6=O)c(OC)cc34)c(F)c1)c(C)n2C` (stereo not drawn): the concentration for a half-maximal effect (EC50) was above 10 µM.

As for `CCc1ccc2c(c1)c(=O)c(C(=O)Nc1ccc(Oc3ncnc4cc(OCCCCCCCCCC(=O)Nc5cccc6c5C(=O)N(C5CCC(=O)NC5=O)C6=O)c(OC)cc34)c(F)c1)c(C)n2C` (stereo not drawn), the EC50 is above 10 µM.

`CCc1ccc2c(c1)c(=O)c(C(=O)Nc1ccc(Oc3ncnc4cc(OCCCCCCCCCCCC(=O)Nc5cccc6c5C(=O)N(C5CCC(=O)NC5=O)C6=O)c(OC)cc34)c(F)c1)c(C)n2C` (stereo not drawn): the concentration for a half-maximal effect (EC50) was above 10 µM.

Turning to `CCc1ccc2c(c1)c(=O)c(C(=O)Nc1ccc(Oc3ncnc4cc(OCCCCC(=O)Nc5ccc6c(c5)C(=O)N(C5CCC(=O)NC5=O)C6=O)c(OC)cc34)c(F)c1)c(C)n2C` (stereo not drawn), the half-maximal effective concentration (EC50) is above 10 µM.
